Data taken from publication PMC11353420, “Anti-Inflammatory, Cytotoxic, and Genotoxic Effects of Soybean Oligopeptides Conjugated with Mannose” (Foods, 2024).

Columns and labels:
[1] = SRB cytotoxicity assay, RAW 264.7; conditions: mouse
Procedure: (§1) The cells were maintained in a 5% CO2 humidified atmosphere (CO2 incubator, Thermo Scientific, Waltham, MA, USA) at 37 °C and sub-cultured every 3 days.
(§2) The cytotoxicity of the oligopeptide and its conjugated forms on HepG2, HEK293, LX-2, and RAW 264.7 cells, pre- and mature 3T3-L1 adipocytes, and hPBMCs was analyzed by a sulforhodamine (SRB) assay to obtain their non-toxic concentration for further experiments and as screening data for their in vitro safety. The cells were plated for 12 h in 96-well plates and then treated with the oligopeptide and its conjugated sugar at a concentration of 0–1000 µg/mL for 48 h. Dimethyl sulfoxide (DMSO) was used as a vehicle control (the untreated control). At the indicated time, the cells were then fixed and subjected to an SRB assay. The absorbance was measured at 510 nm by spectrophotometry (Gen5, BioTek, Winooski, VT, USA), and the cell viability was calculated as the ratio of the treatment versus untreated control. The data are represented as the mean ± standard deviation of three replicates and are expressed relative to the untreated control. The percentage of cell survival was calculated as follows:% cell survival = (Abs_extract/Abs_control) × 100

[2] = system: RAW 264.7 murine macrophage cell line; experiment: SRB cytotoxicity assay, RAW 264.7; conditions: Mus musculus, RAW264.7, 48 h
Procedure: as §1, §2

[3] = SRB cytotoxicity assay, PBMCs; assay type: cell-based, human; conditions: human, peripheral blood mononuclear cells (PBMCs); PBMCs, 800 µg/mL; read-out: % Cell Viability (n = 5)
Description: (§3) As described by […] et al., human peripheral blood mononuclear cells (PBMCs) and red blood cells (RBCs) were isolated from human blood samples [41]. Human blood samples of healthy subjects obtained from Maharaj Hospital, Chiang Mai, Thailand, were anonymized and kept in a heparinized tube by the laboratory. RBCs were collected and used to determined hemolysis induction by a hemolysis assay. Ficoll-Hypaque solution was used to isolate PBMCs, as described in the manufacturer's instructions. A certificate of exemption by the Research Ethics Committee of the Faculty of Medicine, Chiang Mai University (No. EXEMPTION 8989/2022), was granted. Consent to participate was not applicable as all data were anonymized. All methods were carried out in accordance with relevant guidelines and regulations.

[4] = system: human peripheral blood mononuclear cells (PBMCs); experiment: SRB cytotoxicity assay, PBMCs; assay type: cell-based; conditions: up to 800 µg/mL
Description: as §3

COX-2 = COX-2 protein level by immunoblotting in LPS-treated RAW 264.7; assay type: cell-based, murine; conditions: 100, 200, 400 µg/mL, LPS 1 µg/mL 24 h
Procedure: RAW 264.7 macrophage cells were pretreated with various concentrations of the oligopeptide and its conjugated forms (100, 200, 400 µg/mL) for an hour and then incubated with LPS (1 µg/mL) for a further 24 h (at 37 °C in a 5% CO2 humidified atmosphere). The cells were then collected to investigate the iNOS and COX-2 protein levels. Cell lysate was prepared to obtain the protein samples. The samples were subjected to 10% sodium dodecyl sulfate polyacrylamide gel electrophoresis (SDS-PAGE). The separated proteins were electrically transferred to a nitrocellulose membrane. The target proteins were probed with specific antibodies, including anti-COX-2 antibody (Cell signaling, Danvers, MA, USA), anti-iNOS antibody (Merck, Rahway, NJ, USA), and anti-β-actin antibody (Sigma, St. Louis, MO, USA). Protein detection was performed using a chemiluminescence reagent (Bio-Rad Laboratories, Watford, UK).

Drosophila melanogaster = experiment: Somatic mutation and recombination test (SMART, wing spot test); assay type: in vivo; design: key to Statistical diagnosis vs DI (negative control), Small Single (1–2 Cells) / Statistical diagnosis vs DI (negative control), Large Single (>2 Cells) / Statistical diagnosis vs DI (negative control), Twin / Statistical diagnosis vs DI (negative control), Total Spots: + = positive; − = negative; i = inconclusive; conditions: for Frequency of Mutant Spots per Individual (Number of Spots), Large Single (>2 Cells) / Frequency of Mutant Spots per Individual (Number of Spots), Small Single (1–2 Cells) / Frequency of Mutant Spots per Individual (Number of Spots), Total Spots / Frequency of Mutant Spots per Individual (Number of Spots), Twin: 40 wings
Procedure: In brief, two strains of fruit flies, including mwh/mwh and ORR; flr^3/In(3LR) TM3, ri p^p sep l(3)89Aa bx^34e e Bd^S, were mated. […] After hatching, forty round wings were collected and analyzed for mutant spots (single, large, and twin spots). The statistical analysis for the wing spot test was performed as previously described. The Drosophila study was approved by the Institute of Nutrition—Mahidol University Institutional Animal Care and Use Committee (INMU-IACUC) (COA. No. INMU-IACUC 2023/01).

With OC[C@H]1OC(O)[C@@H](O)[C@@H](O)[C@@H]1O (stereo partly drawn) [Man, D-mannose] the IC20 at 48 h [1] was > 1000 µg/mL, the IC50 [2] was > 1000 µg/mL and the viability at 48 h, 800 µg/mL [3] was 106 ± 13.3%. The “toxic effects to hPBMCs” value [4] was “did not show any toxic effects”, the “effect on COX-2 protein level” value (COX-2) was “did not affect” and the “Statistical diagnosis vs DI (negative control), Large Single (>2 Cells)” value (from here on “Statistical diagnosis vs DI … (>2 Cells)”) (Drosophila melanogaster; 62.5 µg/mL) was “i”. The “Statistical diagnosis vs DI (negative control), Small Single (1–2 Cells)” value (shortened to “Statistical diagnosis vs DI … (1–2 Cells)”) (Drosophila melanogaster; 62.5 µg/mL) was “−”, the “Statistical diagnosis vs DI (negative control), Twin” value (“Statistical diagnosis vs DI … Twin” for short) (Drosophila melanogaster; 62.5 µg/mL) was “−” and the “Frequency of Mutant Spots per Individual (Number of Spots), Large Single (>2 Cells)” value (Drosophila melanogaster; 62.5 µg/mL) was 0.03 (1). The “Frequency of Mutant Spots per Individual (Number of Spots), Small Single (1–2 Cells)” value (Drosophila melanogaster; 62.5 µg/mL) was 0.40 (16), the “Frequency of Mutant Spots per Individual (Number of Spots), Total Spots” value (Drosophila melanogaster; 62.5 µg/mL) was 0.43 (17) and the “Frequency of Mutant Spots per Individual (Number of Spots), Twin” value (Drosophila melanogaster; 62.5 µg/mL) was 0.00 (0). The “Statistical diagnosis vs DI … (>2 Cells)” value (Drosophila melanogaster; 125 µg/mL) was “i”, the “Statistical diagnosis vs DI … (1–2 Cells)” value (Drosophila melanogaster; 125 µg/mL) was “−” and the “Statistical diagnosis vs DI (negative control), Total Spots” value (shortened to “Statistical diagnosis vs DI … Total Spots”) (Drosophila melanogaster; 125 µg/mL) was “−”. The “Statistical diagnosis vs DI … Twin” value (Drosophila melanogaster; 125 µg/mL) was “−”, the “Frequency of Mutant Spots per Individual (Number of Spots), Large Single (>2 Cells)” value (Drosophila melanogaster; 125 µg/mL) was 0.03 (1) and the “Frequency of Mutant Spots per Individual (Number of Spots), Small Single (1–2 Cells)” value (Drosophila melanogaster; 125 µg/mL) was 0.50 (20). The “Frequency of Mutant Spots per Individual (Number of Spots), Total Spots” value (Drosophila melanogaster; 125 µg/mL) was 0.53 (21), the “Frequency of Mutant Spots per Individual (Number of Spots), Twin” value (Drosophila melanogaster; 125 µg/mL) was 0.00 (0) and the “Statistical diagnosis vs DI … (>2 Cells)” value (Drosophila melanogaster; 250 µg/mL) was “i”. The “Statistical diagnosis vs DI … (1–2 Cells)” value (Drosophila melanogaster; 250 µg/mL) was “−”, the “Statistical diagnosis vs DI … Total Spots” value (Drosophila melanogaster; 250 µg/mL) was “−” and the “Statistical diagnosis vs DI … Twin” value (Drosophila melanogaster; 250 µg/mL) was “−”. The “Frequency of Mutant Spots per Individual (Number of Spots), Large Single (>2 Cells)” value (Drosophila melanogaster; 250 µg/mL) was 0.03 (1), the “Frequency of Mutant Spots per Individual (Number of Spots), Small Single (1–2 Cells)” value (Drosophila melanogaster; 250 µg/mL) was 0.43 (17) and the “Frequency of Mutant Spots per Individual (Number of Spots), Total Spots” value (Drosophila melanogaster; 250 µg/mL) was 0.45 (18). The “Frequency of Mutant Spots per Individual (Number of Spots), Twin” value (Drosophila melanogaster; 250 µg/mL) was 0.00 (0), the “Statistical diagnosis vs DI … (>2 Cells)” value (Drosophila melanogaster; 500 µg/mL) was “i” and the “Statistical diagnosis vs DI … (1–2 Cells)” value (Drosophila melanogaster; 500 µg/mL) was “−”. For the same compound, the “Statistical diagnosis vs DI … Total Spots” value (Drosophila melanogaster; 500 µg/mL) was “−”, the “Statistical diagnosis vs DI … Twin” value (Drosophila melanogaster; 500 µg/mL) was “−” and the “Frequency of Mutant Spots per Individual (Number of Spots), Large Single (>2 Cells)” value (Drosophila melanogaster; 500 µg/mL) was 0.03 (1). The “Frequency of Mutant Spots per Individual (Number of Spots), Small Single (1–2 Cells)” value (Drosophila melanogaster; 500 µg/mL) was 0.25 (10), the “Frequency of Mutant Spots per Individual (Number of Spots), Total Spots” value (Drosophila melanogaster; 500 µg/mL) was 0.28 (11) and the “Frequency of Mutant Spots per Individual (Number of Spots), Twin” value (Drosophila melanogaster; 500 µg/mL) was 0.00 (0). For the same compound, the “Statistical diagnosis vs DI … (>2 Cells)” value (Drosophila melanogaster; 1000 µg/mL) was “i”, the “Statistical diagnosis vs DI … (1–2 Cells)” value (Drosophila melanogaster; 1000 µg/mL) was “−” and the “Statistical diagnosis vs DI … Total Spots” value (Drosophila melanogaster; 1000 µg/mL) was “−”. For the same compound, the “Statistical diagnosis vs DI … Twin” value (Drosophila melanogaster; 1000 µg/mL) was “−”, the “Frequency of Mutant Spots per Individual (Number of Spots), Large Single (>2 Cells)” value (Drosophila melanogaster; 1000 µg/mL) was 0.03 (1) and the “Frequency of Mutant Spots per Individual (Number of Spots), Small Single (1–2 Cells)” value (Drosophila melanogaster; 1000 µg/mL) was 0.25 (10). For the same compound, the “Frequency of Mutant Spots per Individual (Number of Spots), Total Spots” value (Drosophila melanogaster; 1000 µg/mL) was 0.28 (11), the “Frequency of Mutant Spots per Individual (Number of Spots), Twin” value (Drosophila melanogaster; 1000 µg/mL) was 0.00 (0) and the “Statistical diagnosis vs DI … (>2 Cells)” value (Drosophila melanogaster; 2000 µg/mL) was “−”. The “Statistical diagnosis vs DI … (1–2 Cells)” value (Drosophila melanogaster; 2000 µg/mL) was “−”, the “Statistical diagnosis vs DI … Total Spots” value (Drosophila melanogaster; 2000 µg/mL) was “−” and the “Statistical diagnosis vs DI … Twin” value (Drosophila melanogaster; 2000 µg/mL) was “−”. The “Frequency of Mutant Spots per Individual (Number of Spots), Large Single (>2 Cells)” value (Drosophila melanogaster; 2000 µg/mL) was 0.00 (0), the “Frequency of Mutant Spots per Individual (Number of Spots), Small Single (1–2 Cells)” value (Drosophila melanogaster; 2000 µg/mL) was 0.23 (9) and the “Frequency of Mutant Spots per Individual (Number of Spots), Total Spots” value (Drosophila melanogaster; 2000 µg/mL) was 0.23 (9). For the same compound, the “Frequency of Mutant Spots per Individual (Number of Spots), Twin” value (Drosophila melanogaster; 2000 µg/mL) was 0.00 (0), the “Statistical diagnosis vs DI … (>2 Cells)” value (Drosophila melanogaster; 5000 µg/mL) was “−” and the “Statistical diagnosis vs DI … (1–2 Cells)” value (Drosophila melanogaster; 5000 µg/mL) was “−”. The “Statistical diagnosis vs DI … Total Spots” value (Drosophila melanogaster; 5000 µg/mL) was “−”, the “Statistical diagnosis vs DI … Twin” value (Drosophila melanogaster; 5000 µg/mL) was “−” and the “Frequency of Mutant Spots per Individual (Number of Spots), Large Single (>2 Cells)” value (Drosophila melanogaster; 5000 µg/mL) was 0.00 (0). The “Frequency of Mutant Spots per Individual (Number of Spots), Small Single (1–2 Cells)” value (Drosophila melanogaster; 5000 µg/mL) was 0.18 (7), the “Frequency of Mutant Spots per Individual (Number of Spots), Total Spots” value (Drosophila melanogaster; 5000 µg/mL) was 0.18 (7) and the “Frequency of Mutant Spots per Individual (Number of Spots), Twin” value (Drosophila melanogaster; 5000 µg/mL) was 0.00 (0). The “DNA mutations / genome safety” value (Drosophila melanogaster; all doses, up to 5000 µg/mL) was “did not trigger DNA mutations”.
